Experimental data: US11986512B2, “Compositions and methods for cancer therapy” (Thetis Pharmaceuticals LLC, priority 2021, dated 2024)

Columns and labels:
KPC cells = experiment: Orthotopic KPC model of pancreatic cancer, survival; type: in vivo, C57BL/6J male mice
Description: To expand our understanding of less than daily (LTD) dosing of bis RvE1 Mg-di-lysinate as a cancer therapy that could be used in combination with chemotherapy, bis RvE1 Mg-di-lysinate (Compound 1) was investigated in the orthotopic KPC model of pancreatic cancer. A total of fifteen (15) C57BL/6J male mice were implanted orthotopically with 5×10e5 living KPC cells into the pancreas. The mice were randomized (n=7-8) to treatment with bis RvE1 Mg-di-lysinate (300 ug/kg, SC, Q6D) with or without gemcitabine (50 mg/kg, IP, Q3D, up to 6 doses) one day after tumor cell implantation.

[1] = system: polymorphonuclear leukocyte (PMN) recruitment; conditions: equimolar dose; cited from earlier work
LLC cells [2] = experiment: Lewis lung carcinoma (LLC) model, with and without anti-PD1 or cisplatin; type: in vivo, C57BL/6J male mice; conditions: monotherapy, 5 mg/kg, i.p, Q5D
Description: A representative compound of Formula IV, RvE1 magnesium dilysinate, was tested for efficacy in several mouse models of cancer, including the Panc2-H7 model of pancreatic cancer, the Lewis lung carcinoma (LLC) model, the MC38 model of colorectal cancer, and the B16F10 model of melanoma. These models are well established, highly tumorigenic syngeneic models in which murine cancer cell lines are injected subcutaneously (SC) into the dorsum of C57BL/6J mice. If left untreated, these tumors grow rapidly and lead to death or euthanasia, per protocol. As detailed below in Examples 1-9 and the accompanying figures, bis RvE1 Mg-di-lysinate (Compound 1) was unexpectedly effective as an anti-cancer agent in each of these model systems when administered in a less than daily (LTD) dosing regimen. […] Without being bound by any theory, the surprising efficacy of LTD dosing of resolvins in the cancer model systems described here may be the result of durable effects on the tumor microenvironment including changes in immune cell phenotype, vascularization, stromal phenotype, and antigen presentation, as well as durable effects on the T-cell compartment such as T-cell priming and increased tumor-infiltrating lymphocytes.
To expand our understanding of bis RvE1 Mg-di-lysinate as a cancer therapy that could be used in combination with other cancer therapies including immune checkpoint inhibitors, bis RvE1 Mg-di-lysinate monotherapy and in combination either anti-PD1 or cisplatin was investigated in the LLC model of non-small cell lung cancer, which is a model known to unresponsive to anti-PD1 therapy and moderately responsive to cisplatin. Yu et al., J Exp Clin Cancer Res. 2010; 29(1):46; Lechner et al., J Immunother. 2013; 36(9):477-489. A total of forty (40) C57BL/6J male mice were injected subcutaneously with 1×10e6 living LLC cells. […] In addition, bis RvE1 Mg-di-lysinate was evaluated in combination with anti-PD1 or cisplatin. […]

LLC cells [3] = experiment: Metastatic LLC resection model, perioperative (neo-adjuvant) treatment; type: in vivo, C57BL/6J male mice; conditions: 5 mg/kg, i.p, Q6D, first dose 24 hours prior to surgery; compared to vehicle control
Description: To investigate the efficacy of LTD dosing of bis RvE1 Mg-di-lysinate as neo-adjuvant therapy, a study was conducted in the metastatic LLC resection model with treatment initiated in the perioperative window. A total of fifteen (15) C57BL/6J male mice were injected subcutaneously with 1×10e6 living LLC cells. Once tumors reached approximately 1200-1500 mme3 in size, the mice were randomized (n=4-8 per group) to treatment with vehicle (SC, Q6D), bis RvE1 Mg-di-lysinate (300 ug/kg, SC, Q6D), or cisplatin (5 mg/kg, i.p, Q6D), followed by surgical resection of the tumors. The mice in the vehicle and cisplatin groups received an initial dose twenty-four (24) hours prior to surgery, and the mice treated with bis RvE1 Mg-di-lysinate received an initial dose two (2) hours prior to surgery. All mice were sacrificed on day 19 following the death of three mice in the vehicle control group on day 18.

[4] = system: CD4+ and CD8+ cells in the liver; conditions: administration of either RvD1 or RvE1; cited from earlier work
HPV tumorigenesis = conditions: cited from earlier work

In the case of `Nc1ccn([C@@H]2O[C@H](CO)[C@@H](O)C2(F)F)c(=O)n1` [gemcitabine, reference compound], the “mice alive as of the last observation (day 250)” value (KPC cells; gemcitabine monotherapy group) is reported as “zero of eight mice” and the mean survival (KPC cells; gemcitabine monotherapy, 50 mg/kg, IP, Q3D, up to 6 doses) is reported as 25 days.

For `CCC(=O)/C=C/C=C\C[C@@H](O)/C=C/C=C/C=C\[C@@H](O)CCCC(=O)O` [Compound 18-oxo-RvE1, 18-oxo-RvE1], the “activity in zymosan-induced peritonitis (PMN recruitment)” value [1] is given as “devoid of activity”.

For `N.N.[Cl][Pt][Cl]` [cisplatin, reference compound], the “tumor volume (Day 11 vs Day 0)” value (LLC cells [2]) was “failed to demonstrate efficacy as monotherapy compared to placebo”, the “number of lung metastases” value (LLC cells [3]) was “failed to show a significant reduction” and the “number of mice with lymph node metastasis” value (LLC cells [3]) was “failed to show a significant reduction”.

In the case of `CC/C=C\C[C@H](O)/C=C/C=C\C=C\C=C\[C@@H](O)[C@@H](O)C/C=C\CCC(=O)O` [RvD1, 7S,8R,17S-trihydroxy-4Z,9E,11E,13Z,15E,19Z-docosahexaenoic acid], the “levels of CD4+ and CD8+ cells in the liver” value [4] is listed as “markedly downregulated levels of CD4+ and CD8+ cells in the liver”, the “tumor infiltration levels of CD4+ and CD8+ T cells” value (HPV tumorigenesis; in vivo) is listed as “did not modify tumor infiltration levels of CD4+ and CD8+ T cells” and the tumor progression (HPV tumorigenesis; via modulated activity of tumor-associated neutrophils (PMN)) is listed as “reduce tumor progression”.

In the case of `CC[C@@H](O)/C=C/C=C\C[C@@H](O)/C=C/C=C/C=C\[C@@H](O)CCCC(=O)O` [RvE1, 5S,12R,18R-trihydroxy-6Z,8E,10E,14Z,16E-eicosapentaenoic acid], the “activity in zymosan-induced peritonitis (PMN recruitment)” value [1] is listed as “potently reduced polymorphonuclear leukocyte (PMN) recruitment” and the “levels of CD4+ and CD8+ cells in the liver” value [4] is listed as “markedly downregulated levels of CD4+ and CD8+ cells in the liver”.
